Assays:
Type in all cases: cell-based, human
MDAMB231 cells [1] = assay: Nuclear condensation or blebbing assay (doxorubicin-induced apoptosis); details: FIG. 11C
Method: (§1) FIGS. 1A-D illustrate that the protective effect of EGF from doxorubicin-induced apoptosis is blocked by MDC in SKBR3 cells. In FIG. 11A, nearly confluent cultures of SKBR3 and MDAMB231 cells were placed in low serum medium. The following day, the cells were exposed to low serum medium +/−0.25 μM doxorubicin (Dox) for the times indicated and subsequently lysed. The presence of the activated form of caspase 3 (cleaved caspase 3) and actin (actin) in the cell extracts was assessed by Western blot analysis. In FIG. 11B, SKBR3 and MDAMB231 cells were maintained in low serum medium (0) or treated with 10 μM MDC (MDC) for 1.5 days. During this incubation, the SKBR3 cell cultures were also stimulated with +/−100 ng/ml EGF or +/−5 μM RA. All cell cultures were then treated with +/−0.25 μM doxorubicin (Dox) for about 1 day and the cells were scored for programmed cell death as described in Example 13. The assay was performed three times and the average percentage of cell death was plotted (FIG. 11C).
(§2) NIH3T3 cells were grown in Dulbecco's modified Eagle's medium containing 10% calf serum and 100 units/ml penicillin. SKBR3 and MDAMB231 cells were grown in RPMI 1640 medium containing 10% fetal bovine serum and 100 units/ml penicillin. The cell lines were maintained in a humidified atmosphere with 5% CO2 at 37° C. For the various treatments described, the cells were grown to near confluence in medium containing 10% serum, and then medium containing 1% serum or no serum with 5 μM RA, and/or 100 ng/ml EGF, +/−7 μM LY294002, and +/−0.2 μM doxorubicin were added for the appropriate amount of time. Cells were rinsed with phosphate-buffered saline (PBS) and then lysed with cell lysis buffer (10 mM Na2HPO4, 150 mM NaCl, 1% Triton X-100, 0.5% sodium deoxycholate, 0.1% SDS, 0.004% NaF, 1 mM NaVO4, 25 mM β-glycerophosphoric acid, 100 μg/ml phenylmethanesulfonyl fluoride, and 1 μg/ml each aprotinin and leupeptin, pH 7.35). The lysates were clarified by centrifugation at 12,000×g for 10 minutes at 4° C. Protein concentrations were determined using the Bio-Rad DC protein assay.
(§3) Cells were seeded in 6-well dishes and grown in complete medium for 2 days. The cells were then incubated in medium containing 1% serum +/−5 μM RA, +/−100 ng/ml EGF, and +/−10 μM MDC for 2 days. The cultures were then incubated with fresh medium containing RA, EGF, and MDC and +/−0.2 μM doxorubicin for an additional 1.5 days and were fixed and stained with 4,6-diamidino-2-phenylindole (2 μg/ml) for viewing by fluorescence microscopy. Apoptotic cells were identified by condensed nuclei and/or blebbing.

SKBR3 cells [2] = assay: as above
Method: as §1, §2, §3

MDAMB231 cells [3] = assay: Western blot for cleaved (activated) caspase 3; details: MDAMB231 cells exposed to doxorubicin; FIG. 11A
Method: as §1
(§4) NIH3T3 cells were grown in Dulbecco's modified Eagle's medium containing 10% calf serum and 100 units/ml penicillin. SKBR3 and MDAMB231 cells were grown in RPMI 1640 medium containing 10% fetal bovine serum and 100 units/ml penicillin. The cell lines were maintained in a humidified atmosphere with 5% CO2 at 37° C. […] Protein concentrations were determined using the Bio-Rad DC protein assay. […]

SKBR3 cells [4] = assay: Western blot for cleaved (activated) caspase 3; details: 24 hours of incubation with doxorubicin, FIG. 11A
Method: as §1, §4

Compound	apoptotic rate (MDAMB231 cells [1]; MDAMB231 cells exposed to doxorubicin (0.25 μM)) [%]	cells displaying nuclear condensation or blebbing (SKBR3 cells [2]; SKBR3 cells exposed to doxorubicin (0.25 μM, about 1 day), low serum, FIG. 11B) [%]	cleaved form of caspase 3 (MDAMB231 cells [3])	cleaved or activated caspase 3 (SKBR3 cells [4])	susceptibility to doxorubicin-induced apoptosis compared to doxorubicin treatment alone (MDAMB231 cells [1]; MDAMB231 cells, 10 μM MDC plus doxorubicin)	effect on the pro-survival effect of EGF from doxorubicin-induced apoptosis (SKBR3 cells [2]; SKBR3 cells incubated with MDC (10 μM), EGF and doxorubicin)
COc1cccc2c1C(=O)c1c(O)c3c(c(O)c1C2=O)C[C@@](O)(C(=O)CO)C[C@@H]3O[C@H]1C[C@H](N)[C@H](O)[C@H](C)O1 [doxorubicin]	25	~80	failed to induce the cleaved form of caspase 3 to the same extent as in SKBR3 cells	easily detected	–	–
CN(C)c1cccc2c(S(=O)(=O)NCCCCCN)cccc12 [MDC, monodansylcadaverine]	–	–	–	–	slightly more than twice as susceptible	nearly completely eliminated the pro-survival effect of EGF

Source: patent US20040259176A1, “Structural basis for the guanine nucleotide-binding activity of tissue transglutaminase and its regulation of transamidation activity” (priority 2003, published 2004)
